Drawing on US20180110824A1, “Macrocyclic Modulators of the Ghrelin Receptor” (Ocera Therapeutics, Inc., priority 2016, published 2018), this text covers Ki for 46 compounds.

T1 sequence (Q92847 whole entry): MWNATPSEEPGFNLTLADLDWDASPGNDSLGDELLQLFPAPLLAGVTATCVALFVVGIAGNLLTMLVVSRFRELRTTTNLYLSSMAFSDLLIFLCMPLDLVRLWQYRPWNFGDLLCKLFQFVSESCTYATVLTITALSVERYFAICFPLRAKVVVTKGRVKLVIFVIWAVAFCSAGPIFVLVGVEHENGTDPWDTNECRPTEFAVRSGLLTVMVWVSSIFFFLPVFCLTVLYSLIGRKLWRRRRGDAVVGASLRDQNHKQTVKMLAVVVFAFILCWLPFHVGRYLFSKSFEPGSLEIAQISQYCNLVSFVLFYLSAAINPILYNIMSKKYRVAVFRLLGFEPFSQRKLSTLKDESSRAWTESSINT

The first test concerns the target T1, human growth hormone secretagogue receptor (hGHS-R1a) (Homo sapiens, UniProt Q92847).
T1 construct: purchased PerkinElmer BioSignal #RBHGHSM; host or cells: HEK-293, stably transfected
Put plainly: Competitive radioligand binding assay (ghrelin receptor), [125I]-ghrelin displacement on GHS-R/HEK 293 membranes.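 As to Binding Activity at the Human Ghrelin Receptor (Ki): symbols B 10-100 nM C 0.1-1 µM D 1-10 µM F above 1 µM G above 10 µM.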 The note with it: Binding activity at the human ghrelin receptor, [125I]-ghrelin displacement; read-out: Ki. The protocol: The competitive binding assay at the human growth hormone secretagogue receptor (hGHS-R1a) was carried out analogously to assays described in the literature.
Multiscreen Harvest plates-GF/C (Millipore, #MAHFC1H60) • 4. […] Bottom seal (Millipore, #MATAH0P00) • 7. […] Binding Buffer: 25 mM Hepes (pH 7.4), 1 mM CaCl2, 5 mM MgCl2, 2.5 mM EDTA, 0.4% BSA
Competition experiments were performed in a 300 μl filtration assay format. • 1. 220 μL of membranes diluted in binding buffer • 2. 40 μL of compound diluted in binding buffer • 3.
Compounds were provided frozen on dry ice at a stock concentration of 10 mM diluted in 100% DMSO and stored at −80° C. until the day of testing. On the test day, compounds were allowed to thaw at rt O/N and then diluted in assay buffer according to the desired test concentrations. Under these conditions, the maximal final DMSO concentration in the assay was 0.1%.
Plates were sealed with TopSeal-A, vortexed gently and incubated at rt for 30 min. The reaction was arrested by filtering samples through Multiscreen Harvest plates (pre-soaked in 0.5% polyethyleneimine) using a Tomtec Harvester, washed 9 times with 500 μL of cold 50 mM Tris-HCl (pH 7.4, 4° C.), and then plates were air-dried in a fumehood 30 min. A bottom seal was applied to the plates prior to the addition of 25 μL of MicroScint-0 to each well. […] Results were expressed as counts per minute (cpm).
Data were analyzed by GraphPad Prism (GraphPad Software, San Diego, Calif.) using […] non-linear regression analysis.
where total and non-specific binding represent the cpm obtained in the absence or presence of 1 μM ghrelin, respectively.
• 1. Binding performed on membranes prepared from HEK293 expressing the transfected, cloned human ghrelin receptor (hGHS-R1a). • 2. […] Ghrelin (unlabeled, 1 μM) was used to determine non-specific binding. • 4.
By Ki is commonly meant a measure of affinity in units of concentration, obtained from inhibition or displacement. Consider `CCC[C@@H]1NCCOc2ccccc2CCCNC(=O)[C@@H](CCCN)NC(=O)CN(C)C1=O` [compound 53], for which the Ki was greater than 10 µM.
`O=C1NC2(CCCC2)C(=O)N[C@@H](Cc2ccccc2)C(=O)NC/C=C/c2ccccc2OCCN[C@H]1Cc1cscn1` [compound 134]: the Ki fell in the range of 0.1 to 1 µM.
On the same count and under the same terms, the same measure for `CCCC[C@H]1NC(=O)CN(C)C(=O)[C@H](CCC)NCCOc2ccccc2CCCNC1=O` [compound 52]: 0.1 to 1 µM; for `CC(C)C[C@@H]1NCCOc2ccccc2CCCNC(=O)[C@H](C)NC(=O)C2(CCCC2)NC1=O` [compound 87]: greater than 10 µM.
The same measure, in the same setting: the figure for `CCC[C@@H]1NCCOc2ccccc2CCCNC(=O)[C@@H](Cc2ccccc2)NC(=O)[C@H](CCCCN)NC1=O` [compound 68] is 1 to 10 µM; for `O=C1NC2(CCCC2)C(=O)N[C@@H](Cc2ccccc2)C(=O)NC/C=C/c2ccccc2OCCN[C@H]1Cc1cccc2ccccc12` [compound 130] it is 1 to 10 µM; for `CCC[C@@H]1NCCOc2ccccc2CCCNC(=O)[C@@H](Cc2ccccc2)NC(=O)CNC1=O` [compound 61] it is 0.1 to 1 µM.
Still for that read-out and setting: the same measure for `CCC[C@@H]1NCCOc2ccccc2CCCNC(=O)[C@@H](Cc2ccccc2)NC(=O)[C@@H](Cc2ccccc2)NC1=O` [compound 65]: 1 to 10 µM; for `CCC[C@@H]1NCCOc2ccccc2/C=C/CNC(=O)[C@H](Cc2ccccc2)NC(=O)C2(CCCC2)NC1=O` [compound 137]: 0.01 to 0.1 µM; for `CCC[C@@H]1NCc2ccccc2Sc2ccccc2CNC(=O)[C@@H](Cc2ccccc2)NC(=O)CN(C)C1=O` [compound 77]: 0.1 to 1 µM.
For `CC(C)C[C@@H]1NCCOc2ccccc2CCCNC(=O)[C@H](Cc2c[nH]c3ccccc23)NC(=O)C2(CCCC2)NC1=O` [compound 89], the Ki was in the range of 1 to 10 µM.
The same measure, in the same setting: the figure for `CN1CC(=O)NC(Cc2ccccc2)C(=O)NCCCc2ccccc2OCCNCC1=O` (stereo not shown) [compound 80] is greater than 10 µM; for `CCC[C@@H]1NCCOc2ccccc2CCCNC(=O)[C@@H](CO)NC(=O)CN(C)C1=O` [compound 54] it is greater than 10 µM.
Still for that read-out and setting: the figure for `CCCC[C@@H]1NCCOc2ccccc2CCCNC(=O)[C@H](Cc2ccccc2)NC(=O)C2(CCCC2)NC1=O` [compound 101] is 0.1 to 1 µM; for `CC(C)C[C@@H]1NCCOc2ccccc2CCCNC(=O)[C@H](CCc2ccccc2)NC(=O)C2(CCCC2)NC1=O` [compound 90] it is 1 to 10 µM; for `CC(C)C[C@H]1NCCOc2ccccc2CCCNC(=O)[C@@H](Cc2ccccc2)NC(=O)C2(CCCC2)NC1=O` [compound 98] it is greater than 10 µM.
Still for that read-out and setting: the same measure for `CCC[C@@H]1NCCOc2ccccc2CCCNC(=O)[C@@H](Cc2ccccc2)NC(=O)[C@H](CCC(=O)O)NC1=O` [compound 70]: greater than 10 µM; for `O=C1NC2(CCCC2)C(=O)N[C@@H](Cc2ccccc2)C(=O)NCCCc2ccccc2OCCN[C@H]1Cc1ccccc1` [compound 102]: 0.1 to 1 µM.
Turning to `CN1CC(=O)N[C@H](Cc2ccccc2)C(=O)NCCCc2ccccc2OCCN[C@@H](CCC(=O)O)C1=O` [compound 73], the Ki was greater than 10 µM.
Same read-out and setting: the same measure for `CCC[C@@H]1NCCOc2ccccc2CCCNC(=O)[C@@H](Cc2ccccc2)NC(=O)[C@H](Cc2ccccc2)NC1=O` [compound 64]: greater than 10 µM.
The same measure, in the same setting: the figure for `CCC[C@@H]1NCCOc2ccccc2CCCNC(=O)[C@@H](Cc2ccccc2)NC(=O)[C@@H](CC(C)C)NC1=O` [compound 63] is greater than 10 µM; for `CCC[C@H]1NCCOc2ccccc2CCCNC(=O)[C@H](Cc2ccccc2)NC(=O)CN(C)C1=O` [compound 56] it is greater than 10 µM; for `CC(C)C[C@@H]1NCCOc2ccccc2CCCNC(=O)[C@H](Cc2ccc(O)cc2)NC(=O)C2(CCCC2)NC1=O` [compound 88] it is 1 to 10 µM.

The same test, now with this note: Table 3B; binding activity at the human ghrelin receptor; read-out: Ki.
As to `CC[C@H](C)[C@@H]1NCCOc2ccccc2C#CCNC(=O)[C@H](Cc2cccc(Cl)c2)NC(=O)C2(CCCC2)NC1=O` [compound 381], the Ki lay within 0.01 to 0.1 µM.
On the same count and under the same terms, the same measure for `CC[C@H](C)[C@@H]1NCCOc2ccccc2C(C)CCNC(=O)[C@H](Cc2cccc(Cl)c2)NC(=O)C2(CCCC2)NC1=O` (stereo partly shown) [compound 386]: 0.1 to 1 µM; for `CC[C@H](C)[C@@H]1NCCCCCCNC(=O)[C@H](Cc2cccc(Cl)c2)NC(=O)C2(CCCC2)NC1=O` [compound 365]: 0.1 to 1 µM; for `C[C@@H]1C(=O)N[C@H](Cc2cc(F)c(F)c(F)c2)C(=O)NCCCc2ccccc2OCCN[C@@H](C2CC2)C(=O)N1C` [compound 391]: 0.0001 to 0.01 µM.
On the same count and under the same terms, the figure for `CC[C@H](C)[C@@H]1NCCOc2ccccc2CC(C)CNC(=O)[C@H](Cc2cccc(Cl)c2)NC(=O)C2(CCCC2)NC1=O` (stereo partly shown) [compound 392] is 0.01 to 0.1 µM.
Regarding `CC1CNC(=O)[C@@H](Cc2ccc(F)cc2)NC(=O)[C@@H](C)N(C)C(=O)[C@H](C2CC2)NCCOc2ccccc2C1` (stereo partly shown) [compound 376], the Ki is 0.1 to 1 µM.
In the case of `CC[C@H](C)[C@@H]1NCCOc2cccnc2CCCNC(=O)[C@H](Cc2cccc(Cl)c2)NC(=O)C2(CCCC2)NC1=O` [compound 385], the Ki was 0.1 to 1 µM.
The same measure, in the same setting: the same measure for `CCC(C)C1NCCOc2ccccc2C=CCNC(=O)C(Cc2cccc(C(F)(F)F)c2)NC(=O)C2(CCCC2)NC1=O` (stereo not shown) [332a]: 0.01 to 0.1 µM; for `C[C@@H]1C(=O)N[C@H](Cc2ccc(F)cc2)C(=O)NCCCc2cc(F)ccc2OCCN[C@@H](C2CC2)C(=O)N1C` [compound 355]: 0.01 to 0.1 µM.
On the same count and under the same terms, the figure for `CC[C@H](C)[C@@H]1NCCOCCOCCNC(=O)[C@H](Cc2cccc(Cl)c2)NC(=O)C2(CCCC2)NC1=O` [compound 393] is 0.1 to 1 µM; for `C[C@@H]1C(=O)N[C@H](Cc2ccc(F)cc2)C(=O)NCCCc2ccccc2OCCN[C@@H](CCN)C(=O)N1C` [compound 338] it is 0.1 to 1 µM; for `O=C1NC/C=C/c2ccccc2OCCN[C@@H](C2CC2)C(=O)NC2(CCCC2)C(=O)N[C@H]1Cc1cccc(Cl)c1` [compound 346] it is 0.1 to 1 µM.
In the case of `C[C@@H]1C(=O)N[C@H](Cc2ccc(F)cc2)C(=O)NCCCc2ccccc2OCCN[C@@H](CCCN)C(=O)N1C` [compound 339], the Ki fell in the range of 0.1 to 1 µM.
The same measure, in the same setting: the same measure for `C[C@@H]1C(=O)N[C@H](Cc2ccsc2)C(=O)NCCCc2ccccc2OCCN[C@@H](C2CC2)C(=O)N1C` [compound 310]: 0.01 to 0.1 µM.
For `C[C@@H]1C(=O)N[C@H](Cc2ccc(F)cc2)C(=O)NCCCc2ccc(NS(C)(=O)=O)cc2OCCN[C@@H](C2CC2)C(=O)N1C` [compound 357], the Ki fell in the range of 0.1 to 1 µM.

Staying with this test, now noted: Table 3C; read-out: Ki.
Regarding `C[C@@H]1C(=O)N[C@H](Cc2cccc(Cl)c2)C(=O)NC/C=C/c2ccccc2OCCNC2(CCCC2)C(=O)N1C` [compound 396], the Ki was 0.01 to 0.1 µM.
With `C[C@H]1C(=O)N[C@H](Cc2cccc(Cl)c2)C(=O)NC/C=C/c2ccccc2OCCNC2(CCCC2)C(=O)N1C` [compound 397], the Ki fell in the range of 0.1 to 1 µM.

The same test, now with this note: Table 3D; read-out: Ki.
For the compound `CCCC1NCCOc2ccccc2CCCNC(=O)C(C(C)c2ccccc2)NC(=O)CN(C)C1=O` (stereo not shown) [compound 448], the Ki was 1 to 10 µM.

The same test, now with this note: Table 3E; read-out: Ki.
As to `CCC[C@@H]1NCCOc2ccccc2CCCNC(=O)[C@@H](Cc2ccccc2)NC(=O)[C@@H]2CCCN2C1=O` [compound 220], the Ki fell in the range of 1 to 10 µM.
Take `C[C@@H]1C(=O)N[C@H](Cc2ccccc2)C(=O)NCCCc2ccccc2OCCN2CCC[C@H]2C(=O)N1C` [compound 225]: the Ki lay in the range of 0.1 to 1 µM.
The same measure, in the same setting: the figure for `CC(C)C[C@@H]1NCCOc2ccccc2CCCNC(=O)[C@H](Cc2ccccc2)NC(=O)[C@H]2CCCN2C1=O` [compound 223] is 1 to 10 µM.

Still in this test, the particulars now being: [125I]-ghrelin displacement, GHS-R/HEK 293 membranes; class symbols; read-out: Binding Activity at the Human Ghrelin Receptor (Ki).
Take `CCC[C@@H]1NCCOc2ccccc2CCCNC(=O)[C@@H](Cc2ccccc2)NC(=O)[C@@H]2CCCN2C1=O` [compound 220]: the Ki is 1 to 10 µM.
On the same count and under the same terms, the figure for `CC(C)C1NCCOc2ccccc2CCCNC(=O)C(Cc2ccccc2)NC(=O)C2(CCNCC2)NC1=O` (stereo not shown) [compound 207] is greater than 10 µM; for `CC(C)[C@@H]1NCCOc2ccccc2CCCNC(=O)[C@H](Cc2ccccc2)NC(=O)C2(CC2)NC1=O` [compound 216] it is 1 to 10 µM.
Still for that read-out and setting: the figure for `C[C@@H]1C(=O)N[C@H](Cc2ccccc2)C(=O)NCCCc2ccccc2OCCN2CCC[C@H]2C(=O)N1C` [compound 225] is 0.1 to 1 µM; for `CC(C)C[C@@H]1NCCOc2ccccc2CCCNC(=O)[C@H](Cc2ccccc2)NC(=O)[C@H]2CCCN2C1=O` [compound 223] it is 1 to 10 µM.
